Data from patent US8987253B2, “Compound having activity of blocking NMDA receptor channel, and pharmaceutical agent using the same” (National University Corporation Chiba University, priority 2006, dated 2015).
pIC50: −log10 of the molar value. Read-outs that look alike come from different tables or passages of the source.

How the values were obtained:
Cytotoxicity = assay type: cell-based
NR1/NR2A = NR1/NR2A (Homo sapiens, UniProt Q05586+Q12879); test: Channel blocking activity on NMDA receptors (NR1/NR2A) expressed on Xenopus oocytes, two electrode voltage clamp; settings: for voltage dependence of channel blocking activity: membrane potential changed from −150 mV to +10 mV
Experimental: The cDNA clones for NMDA receptors were used to prepare the cRNAs, which were then injected in Xenopus oocytes. The cRNAs of subtype 1 (NR1) and subtype 2 (NR2A) of NMDA receptors were injected in a Xenopus oocyte in a ratio of 1:5 (0.1 ng of NR1 and 0.5 ng of NR2A) and incubated in an incubator for several days to express the NMDA receptors on the membrane of the developed egg. The expression was confirmed by a two electrode voltage clamp system. A glass capillary was filled with a 3M potassium chloride solution for use as an electrode, which was then inserted into an egg placed in a perfusion solution to measure a change in membrane potential. The perfusion solution used comprised 100 mM sodium chloride, 2 mM potassium chloride, 1.8 mM barium chloride and 10 mM HEPES, pH 7.5.

NR1/NR2B = NR1/NR2B (Homo sapiens, UniProt Q05586+Q13224); test: Reactivity with NMDA receptor subtype NR1/NR2B expressed on Xenopus oocytes; assay type: cell-based; settings: AQ444 0.1 to 30 μM, FIG. 2
Experimental: (§1) AQ444 was added to the perfusion solution to get a final concentration of 0.1 to 30 μM. […] Further, the intensities in channel blocking activity against the receptors were in the order of NR1/NR2A=NR1/NR2B=NR1/NR2D>>NR1/NR2C.

NR1/NR2C = NR1/NR2C (Homo sapiens, UniProt Q05586+Q14957); test: Reactivity with NMDA receptor subtype NR1/NR2C expressed on Xenopus oocytes; assay type: cell-based; settings: AQ444 0.1 to 30 μM, FIG. 2
Experimental: as §1

NR1/NR2D = NR1/NR2D (Homo sapiens, UniProt O15399+Q05586); test: Reactivity with NMDA receptor subtype NR1/NR2D expressed on Xenopus oocytes; assay type: cell-based; settings: AQ444 0.1 to 30 μM, FIG. 2
Experimental: as §1

NR1 mutant N616Q = test: Channel blocking activity on NMDA receptor mutant NR1 N616Q expressed in eggs; assay type: cell-based; settings: FIG. 3
Source text: (§2) Site-directed mutagenesis was utilized to construct NMDA receptor mutants with amino acid substitutions. The NMDA receptor mutants were expressed in eggs in the same method as shown in Example 1 to investigate for channel blocking activity of AQ444. […] Other relevant amino acid residues on the NMDA receptors are shown in FIG. 4 together with their models.

NR1 mutant N616R = test: Channel blocking activity on NMDA receptor mutant NR1 N616R expressed in eggs; assay type: cell-based; settings: FIG. 3
Source text: as §2

NR2B mutant N615Q = NR2B mutant N615Q (Homo sapiens, UniProt Q05586+Q13224, N615Q); test: Channel blocking activity on NMDA receptor mutant NR2B N615Q expressed in eggs; assay type: cell-based; settings: FIG. 3
Source text: as §2

NR2B mutant N616Q = NR2B mutant N616Q (Homo sapiens, UniProt Q05586+Q13224, N616Q); test: Channel blocking activity on NMDA receptor mutant NR2B N616Q expressed in eggs; assay type: cell-based; settings: FIG. 3
Source text: as §2

[1] = read-out: 50% inhibition concentration (IC50) of channel blocking activity, membrane potential clamp at −70 mV, 10 μM glycine and 10 μM glutamic acid, Xenopus oocytes

Sequence of NR1/NR2A (Q12879 23-1464, other chains not shown): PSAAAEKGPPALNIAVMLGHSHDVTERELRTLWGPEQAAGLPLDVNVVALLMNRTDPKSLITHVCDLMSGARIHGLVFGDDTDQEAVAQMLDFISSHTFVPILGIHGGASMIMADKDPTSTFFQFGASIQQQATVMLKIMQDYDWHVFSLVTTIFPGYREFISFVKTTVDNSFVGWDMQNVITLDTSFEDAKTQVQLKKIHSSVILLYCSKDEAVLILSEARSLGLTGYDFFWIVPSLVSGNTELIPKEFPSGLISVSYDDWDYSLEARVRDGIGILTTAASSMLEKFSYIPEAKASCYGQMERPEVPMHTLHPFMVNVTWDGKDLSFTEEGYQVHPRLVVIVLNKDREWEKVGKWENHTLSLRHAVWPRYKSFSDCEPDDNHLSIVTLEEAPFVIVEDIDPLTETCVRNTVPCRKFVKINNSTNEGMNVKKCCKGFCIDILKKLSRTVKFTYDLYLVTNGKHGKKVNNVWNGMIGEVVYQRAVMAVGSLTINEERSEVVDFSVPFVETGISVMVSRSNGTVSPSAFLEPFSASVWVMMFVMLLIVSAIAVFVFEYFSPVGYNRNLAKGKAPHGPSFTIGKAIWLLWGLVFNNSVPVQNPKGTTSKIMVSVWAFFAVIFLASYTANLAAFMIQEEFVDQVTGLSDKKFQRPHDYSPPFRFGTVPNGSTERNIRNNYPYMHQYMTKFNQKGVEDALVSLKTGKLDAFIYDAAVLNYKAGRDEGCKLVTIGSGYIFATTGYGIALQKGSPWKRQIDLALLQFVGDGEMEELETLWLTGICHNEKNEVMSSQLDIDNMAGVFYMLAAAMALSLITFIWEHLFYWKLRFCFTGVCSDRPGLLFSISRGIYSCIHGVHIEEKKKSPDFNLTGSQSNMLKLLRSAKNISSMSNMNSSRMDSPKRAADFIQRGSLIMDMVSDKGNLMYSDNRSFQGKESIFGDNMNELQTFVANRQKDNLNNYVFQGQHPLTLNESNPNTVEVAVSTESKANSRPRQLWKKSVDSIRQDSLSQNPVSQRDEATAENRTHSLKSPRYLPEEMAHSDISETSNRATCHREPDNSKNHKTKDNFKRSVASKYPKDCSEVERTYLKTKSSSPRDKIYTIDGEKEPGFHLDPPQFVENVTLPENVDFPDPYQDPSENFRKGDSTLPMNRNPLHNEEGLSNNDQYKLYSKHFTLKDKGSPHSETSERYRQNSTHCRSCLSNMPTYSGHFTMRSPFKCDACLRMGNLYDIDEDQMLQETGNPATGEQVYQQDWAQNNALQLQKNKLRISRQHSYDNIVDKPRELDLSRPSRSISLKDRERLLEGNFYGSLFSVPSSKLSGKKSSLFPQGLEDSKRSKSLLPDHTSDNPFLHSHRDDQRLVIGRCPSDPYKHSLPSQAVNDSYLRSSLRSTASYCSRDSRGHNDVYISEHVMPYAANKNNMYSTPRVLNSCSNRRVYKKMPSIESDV
Sequence of NR1/NR2C (Q14957 20-1233, other chains not shown): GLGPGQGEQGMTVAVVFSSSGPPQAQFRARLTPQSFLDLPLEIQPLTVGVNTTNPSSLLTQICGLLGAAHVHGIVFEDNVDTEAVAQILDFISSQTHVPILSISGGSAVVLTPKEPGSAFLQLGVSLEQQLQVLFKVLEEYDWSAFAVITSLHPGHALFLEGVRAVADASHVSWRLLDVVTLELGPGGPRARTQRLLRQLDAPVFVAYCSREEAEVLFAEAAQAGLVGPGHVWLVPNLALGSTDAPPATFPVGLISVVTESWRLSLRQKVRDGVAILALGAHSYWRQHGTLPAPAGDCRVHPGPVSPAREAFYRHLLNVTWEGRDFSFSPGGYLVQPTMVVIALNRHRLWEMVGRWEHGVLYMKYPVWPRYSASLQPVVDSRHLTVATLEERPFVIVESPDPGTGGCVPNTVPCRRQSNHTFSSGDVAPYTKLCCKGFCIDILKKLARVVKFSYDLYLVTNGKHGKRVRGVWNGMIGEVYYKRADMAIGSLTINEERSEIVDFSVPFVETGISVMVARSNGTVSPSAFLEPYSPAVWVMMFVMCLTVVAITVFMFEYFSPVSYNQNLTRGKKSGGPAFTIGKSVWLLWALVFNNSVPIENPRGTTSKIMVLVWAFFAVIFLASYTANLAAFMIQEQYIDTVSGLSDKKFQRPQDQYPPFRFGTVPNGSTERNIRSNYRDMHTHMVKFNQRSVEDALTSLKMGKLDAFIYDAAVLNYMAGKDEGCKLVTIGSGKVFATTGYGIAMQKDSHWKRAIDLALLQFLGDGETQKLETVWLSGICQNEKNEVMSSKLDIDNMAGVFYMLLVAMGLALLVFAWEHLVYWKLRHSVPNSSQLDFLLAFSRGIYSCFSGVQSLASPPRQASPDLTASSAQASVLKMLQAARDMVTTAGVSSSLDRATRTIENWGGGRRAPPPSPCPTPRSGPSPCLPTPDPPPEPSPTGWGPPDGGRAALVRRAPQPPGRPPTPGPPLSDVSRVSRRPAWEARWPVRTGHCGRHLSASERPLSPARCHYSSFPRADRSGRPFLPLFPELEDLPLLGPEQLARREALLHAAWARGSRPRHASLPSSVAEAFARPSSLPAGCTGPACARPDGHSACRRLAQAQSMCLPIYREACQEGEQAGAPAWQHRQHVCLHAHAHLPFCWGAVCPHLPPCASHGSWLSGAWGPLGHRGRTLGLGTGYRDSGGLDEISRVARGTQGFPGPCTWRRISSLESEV
Sequence of NR2B mutant N616Q (Q13224 27-1484 N616Q, other chains not shown): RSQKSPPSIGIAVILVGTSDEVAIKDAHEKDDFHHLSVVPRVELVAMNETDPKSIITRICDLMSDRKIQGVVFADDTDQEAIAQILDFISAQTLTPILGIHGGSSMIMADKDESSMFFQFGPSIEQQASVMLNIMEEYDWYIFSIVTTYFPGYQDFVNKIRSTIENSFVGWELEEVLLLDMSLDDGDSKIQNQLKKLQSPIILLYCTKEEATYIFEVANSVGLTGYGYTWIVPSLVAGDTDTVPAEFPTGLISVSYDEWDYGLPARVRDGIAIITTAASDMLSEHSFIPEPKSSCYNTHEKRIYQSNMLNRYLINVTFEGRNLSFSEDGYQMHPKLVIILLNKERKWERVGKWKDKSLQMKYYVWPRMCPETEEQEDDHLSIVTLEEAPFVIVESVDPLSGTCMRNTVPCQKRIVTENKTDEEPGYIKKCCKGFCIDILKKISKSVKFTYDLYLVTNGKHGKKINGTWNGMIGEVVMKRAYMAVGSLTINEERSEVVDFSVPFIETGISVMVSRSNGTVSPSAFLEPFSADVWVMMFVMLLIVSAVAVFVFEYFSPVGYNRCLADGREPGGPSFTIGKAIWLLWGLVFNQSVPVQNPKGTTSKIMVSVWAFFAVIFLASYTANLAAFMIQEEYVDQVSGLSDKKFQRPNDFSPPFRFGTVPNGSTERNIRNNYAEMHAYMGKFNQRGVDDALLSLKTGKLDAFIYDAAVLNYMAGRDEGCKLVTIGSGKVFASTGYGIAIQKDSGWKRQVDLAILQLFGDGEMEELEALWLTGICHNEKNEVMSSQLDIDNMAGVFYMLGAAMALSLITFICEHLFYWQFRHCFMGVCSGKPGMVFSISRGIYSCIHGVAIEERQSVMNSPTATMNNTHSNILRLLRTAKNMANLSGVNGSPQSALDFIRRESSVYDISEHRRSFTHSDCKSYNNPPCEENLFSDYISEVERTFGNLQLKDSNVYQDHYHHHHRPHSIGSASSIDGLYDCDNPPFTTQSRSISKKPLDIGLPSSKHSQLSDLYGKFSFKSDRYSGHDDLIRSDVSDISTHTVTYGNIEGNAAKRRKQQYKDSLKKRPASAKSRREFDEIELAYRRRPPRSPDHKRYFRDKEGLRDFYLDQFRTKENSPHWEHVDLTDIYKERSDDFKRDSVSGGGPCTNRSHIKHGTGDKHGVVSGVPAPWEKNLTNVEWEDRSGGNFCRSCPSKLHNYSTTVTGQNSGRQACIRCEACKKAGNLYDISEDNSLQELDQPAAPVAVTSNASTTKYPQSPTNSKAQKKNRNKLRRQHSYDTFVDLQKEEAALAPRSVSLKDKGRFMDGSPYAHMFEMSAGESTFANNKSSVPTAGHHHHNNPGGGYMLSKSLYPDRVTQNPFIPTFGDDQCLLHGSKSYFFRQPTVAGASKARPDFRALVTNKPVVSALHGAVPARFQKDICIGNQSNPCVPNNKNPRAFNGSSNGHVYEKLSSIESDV

Compound	pIC50 (Cytotoxicity)	voltage dependence of channel blocking activity (NR1/NR2A)	pIC50 (NR1/NR2A; [1])	pIC50 (NR1/NR2A)	further results
NCCCCNCCCCNCCCCNC(=O)N1c2ccccc2CCc2ccccc21 [DDBA444, Dihydrodibenzoazepine Homospermine]	3.88	in a voltage-dependent manner	7.14	–	–
NCCCNCCCCNCCCNC(=O)n1c2ccccc2c2ccccc21 [carbazole spermine, Carbazole Spermine]	–	–	–	4.82	–
NCCCCNCCCCNCCCCNC(=O)N1c2ccccc2C=Cc2ccccc21 [DBA444, Dibenzoazepine Homospermine]	3.88	in a voltage-dependent manner	6.62	–	–
CC12CC3CC(C)(C1)CC(N)(C3)C2 [memantine, reference compound]	3.83	–	–	–	–
NCCCCNCCCCNCCCCNC(=O)c1ccc2c(c1)C(=O)c1ccccc1C2=O [AQ444, Anthraquinone Homospermine]	–	showed voltage dependence	–	6.33	order of intensity in channel blocking activity among subtypes (NR1/NR2B): NR1/NR2A=NR1/NR2B=NR1/NR2D>>NR1/NR2C; order of intensity in channel blocking activity among subtypes (NR1/NR2C): NR1/NR2A=NR1/NR2B=NR1/NR2D>>NR1/NR2C; order of intensity in channel blocking activity among subtypes (NR1/NR2D): NR1/NR2A=NR1/NR2B=NR1/NR2D>>NR1/NR2C; channel blocking activity on mutant (NR1 mutant N616Q): significantly decreased channel blocking activity; channel blocking activity on mutant (NR1 mutant N616R): significantly decreased channel blocking activity; channel blocking activity on mutant (NR2B mutant N615Q): significantly decreased channel blocking activity; channel blocking activity on mutant (NR2B mutant N616Q): significantly decreased channel blocking activity; order of intensity in channel blocking activity among subtypes (NR1/NR2A; NR1/NR2A, AQ444 0.1 to 30 μM, FIG. 2): NR1/NR2A=NR1/NR2B=NR1/NR2D>>NR1/NR2C
